From patent US6838436B1, “Inhibitors of proteasomal activity for stimulating bone growth” (Osteoscreen Inc., priority 1998, dated 2005)
Where two headings read alike, the source gives them in different places. Where a SMILES comes first, the peptide text is derived from it. [ ]: non-standard residue; d: D form. Nle = CCCC[C@H](N)C(=O)O

Experiments:
mouse BMP2 promoter = experiment: High throughput screen (ABA assay): BMP2 promoter-luciferase reporter in 2T3-BMP-2-LUC osteoblast cells; format: cell-based; conditions: for EC50: Mus musculus, Osteoblast, read-out: Luciferase Activity (ED50-μM)
Source text: 1995, the entire contents of which are incorporated herein by reference. This assay is also described as a portion of a study of immortalized murine osteoblasts (derived from a mouse expressing a transgene composed of a BMP2 promoter driving expression of T-antigen) in Ghosh-Choudhery, N., et al., Endocrinology (1996) 137:331-39. In this study, the immortalized cells were stably transfected with a plasmid containing a luciferase reporter gene driven by a mouse BMP2 promoter (−2736/114 bp), and responded in a dose-dependent manner to recombinant human BMP2.
Briefly, the assay utilizes cells transformed permanently or transiently with constructs in which the promoter of a bone morphogenetic protein, specifically BMP2 or BMP4, is coupled to a reporter gene, typically luciferase. These transformed cells are then evaluated for the production of the reporter gene product; compounds that activate the BMP promoter will drive production of the reporter protein, which can be readily assayed. Many thousands of compounds have been subjected to this rapid screening technique, and only a very small percentage are able to elicit a level of expression of reporter gene 5-fold greater than that produced by vehicle. […] The active compounds (“BMP promoter-active compounds” or “active compounds”) are useful in promoting bone or cartilage growth, and thus in the treatment of vertebrates in need of bone or cartilage growth.
Thousands of compounds have been tested in the assay system set forth in U.S. Ser. No. 08/458,434, filed 2 Jun. 1995, and incorporated herein by reference. […] In this screen, the standard positive control was the compound 59-0008 (also denoted “OS8”), which is of the formula: [drawing 22]
In more detail, the 2T3-BMP-2-LUC cells, a stably transformed osteoblast cell line described in Ghosh-Choudhury et al. Endocrinology (1996) 137:331-39, referenced above, was employed. The cells were cultured using α-MEM, 10% FCS with 1% penicillin/streptomycin and 1% glutamine (“plating medium”), and were split 1:5 once per week. For the assay, the cells were resuspended in a plating medium containing 4% FCS, plated in microtiter plates at a concentration of 5×10^3 cells (in 50 μl)/well, and incubated for 24 hours at 37° C. in 5% CO2. To initiate the assay, 50 μl of the test compound or the control in DMSO was added at 2× concentration to each well, so that the final volume was 100 μl. The final serum concentration was 2% FCS, and the final DMSO concentration was 1%. Compound 59-0008 (10 μM) was used as a positive control.
The treated cells were incubated for 24 hours at 37° C. and 5% CO2. The medium was then removed, and the cells were rinsed three times with PBS. After removal of excess PBS, 25 μl of 1× cell culture lysing reagent (Promega #E153A) was added to each well and incubated for at least ten minutes. Optionally, the plates/samples could be frozen at this point. To each well was added 50 μl of luciferase substrate (Promega #E152A; 10 ml Promega luciferase assay buffer per 7 mg Promega luciferase assay substrate). Luminescence was measured on an automated 96-well luminometer, and was expressed as either picograms of luciferase activity per well or as picograms of luciferase activity per microgram of protein.
Accordingly, other tested compounds can be evaluated at various concentrations, and the results compared to the results obtained for 59-0008 at 10 μM (which value would be normalized to 100). Alternatively, the reactivity of a compound to be tested can be compared directly to a negative control containing no compound.

[1] = molecular target: T1, 20S thermophila proteasome (Methanosarcina thermophila, UniProt Q9P992); experiment: biochemical
T1 construct: purchased CalBiochem, San Diego, Calif
T1 sequence (Q9P992 10-210): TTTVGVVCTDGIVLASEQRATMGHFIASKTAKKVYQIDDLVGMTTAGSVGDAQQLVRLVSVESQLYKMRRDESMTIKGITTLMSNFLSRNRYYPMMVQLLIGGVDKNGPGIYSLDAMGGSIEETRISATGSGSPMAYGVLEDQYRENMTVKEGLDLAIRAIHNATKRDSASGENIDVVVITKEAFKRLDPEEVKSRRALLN
T1 sequence (Q59565 1-247 partner): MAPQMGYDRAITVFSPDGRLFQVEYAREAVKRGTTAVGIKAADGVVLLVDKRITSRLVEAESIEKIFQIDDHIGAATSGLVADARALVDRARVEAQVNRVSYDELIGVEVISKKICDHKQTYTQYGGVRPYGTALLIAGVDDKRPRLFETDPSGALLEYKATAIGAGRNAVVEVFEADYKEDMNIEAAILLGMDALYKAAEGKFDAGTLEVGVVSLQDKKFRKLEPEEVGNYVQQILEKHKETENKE
Protocol: The assay involves incubating the potential inhibitor with 20S thermophila proteasomes which, in purified form, are commercially available, with a fluorogenic peptide substrate. The presence of an inhibitor will reduce the amount of fluorescence generated by the action of the proteasome fraction on the fluorogenic peptide. This assay is described in further detail in Coux, O., et al., N Rev Biochem (1996) 65:801; Adams, J., et al., Cancer Res (1999) 59:2615; and Craiu, A., et al., J Biol Chem (1997) 272:13437. Further reports are set forth in Hilt, W., et al., Trans Biochem Sci (1996) 21:96; Peters, J., Trends Biochem Sci (1994) 19:377; Maupin-Furlow, J. A., et al., J Biol Chem (1995) 270:28617; and Jensen, T. J., et al., Cell (1995) 83:129. Fluorogenic substrates and purified proteasomes are available, for example, from CalBiochem, San Diego, Calif.
Purified 20S thermophila proteasomes and the fluorogenic peptide substrate Suc-Leu-Leu-Val-Tyr-AMC (SEQ ID NO:3) are available from CalBiochem, San Diego, Calif. Briefly, serial dilutions of the inhibitor to be tested were mixed with proteasome solution at a concentration of proteasome of 0.01 mg/ml. After 30 min incubation at 37° C., substrate solution at a final concentration of 25-30 μg/ml was added and the mixture incubated at 37° C. and then read at 15 min, 30 min, and 60 min in a Fluoroscan instrument. The percentage diminution in fluorescence in the presence as compared to the absence of inhibitor is then calculated.

neonatal mouse calvaria = experiment: Neonatal mouse calvaria assay (in vitro / ex vivo) for bone formation; format: cell-based, ICR Swiss white mouse; conditions: for EC50: Mus musculus, read-out: Bone Formation (ED50-μM)
Protocol: An assay for bone resorption or bone formation is similar to that described by Gowen M. & Mundy G., J Immunol (1986) 136:2478-82. Briefly, four days after birth, the front and parietal bones of ICR Swiss white mouse pups are removed by microdissection and split along the sagittal suture. In an assay for resorption, the bones are incubated in BGJb medium (Irvine Scientific, Santa Ana, Calif.) plus 0.02% (or lower concentration) β-methylcyclodextrin, wherein the medium also contains test or control substances. The medium used when the assay is conducted to assess bone formation is Fitton and Jackson Modified BGJ Medium (Sigma) supplemented with 6 μg/ml insulin, 6 μg/ml transferrin, 6 ng/ml selenous acid, calcium and phosphate concentrations of 1.25 and 3.0 mM, respectively, and ascorbic acid to a concentration of 100 μg/ml is added every two days. The incubation is conducted at 37° C. in a humidified atmosphere of 5% CO2 and 95% air for 96 hours.
Following this, the bones are removed from the incubation media and fixed in 10% buffered formalin for 24-48 hours, decalcified in 14% EDTA for 1 week, processed through graded alcohols; and embedded in paraffin wax. Three […] sections of the calvaria are prepared. Representative sections are selected for histomorphometric assessment of bone formation or bone resorption. Bone changes are measured on sections cut 200 μm apart. Osteoblasts and osteoclasts are identified by their distinctive morphology.
Selected compounds and appropriate controls were assayed in vitro (ex vivo) for bone formation activity (described above in “Techniques for Neonatal Mouse Calvaria Assay (in vitro)). Histomorphometrical assessments of ex vivo calvaria were carried out using an OsteoMetrics bone morphometry measurement program, according to the manufacturer's instructions. Measurements were determined using either a 10- or 20-fold objective with a standard point counting eyepiece graticule.
New bone formation was determined (using a 10× objective) by measuring the new bone area formed in one field in 3 representative sections of each bone (4 bones per group). Each measurement was carried out ½ field distance from the end of the suture. Both total bone and old bone area were measured. Data were expressed as new bone area in μm^2.
Osteoblast numbers are determined by point counting. The number of osteoblast cells lining the bone surface on both sides of the bone are counted in one field using a 20× objective. Data are expressed as osteoblast numbers/mm of bone surface. […]

hair follicles = experiment: Induction of anagen in hair follicles in vivo (Example 12); set-up: species or system C57 black mice
Protocol: Inhibitors of the proteasomal chymotrypsin-like activity were treated for their capacity to induce transit of hair follicles into anagen in vivo in C57 black mice eight weeks of age.

proteasomal activity = conditions: cited from earlier work
[2] = system: hair follicles of skin explants; experiment: Cultured skin explants from 5 day old mice, hair follicle diameter and elongation (Example 11); format: cell-based, C3H/HeS1c mice; conditions: 10 μM; 72 hours
Protocol: Cultured skin explants from 5 day old mice cultured for 72 hours were treated with proteasome inhibitors, non-proteasomal proteases and non-proteasomal inhibitors of NF-κB and effects on hair follicle diameter and follicle elongation were determined according to the method of Kamiya, T., et al., J Derm Sci (1998) 17:54-60. Skin slices from the dorsal skin of 5 day old C3H/HeS1c mice were cultured in 1 ml of αMEM and 0.1% BSA for 72 hours and then assessed for changes in hair follicle diameter and hair elongation under an inverted microscope, using image analysis. […] Thus, the chymotrypsin-like activity of the proteasome is the catalytic component of the proteasome that is responsible for the effects of these compounds on hair follicle differentiation and hair growth. Only proteasome inhibitors had discernable effects on these parameters.

[3] = read-out: Proteasome Activity (ED50-μM)

Compound: C=C(C)[C@]12C[C@@H](C)[C@@]34O[C@](Cc5ccccc5)(O[C@@H]1[C@@H]3C=C(COC(=O)Cc1ccc(O)c(OC)c1)C[C@]1(O)C(=O)C(C)=C[C@@H]41)O2 [resiniferatoxin]
- activity in the ABA assay compared with proteasome inhibitors (mouse BMP2 promoter): less active

Compound: CSCCC(C=O)NC(=O)C(CC(C)C)NC(=O)C(CC(C)C)NC(C)=O (stereo not drawn) [N-Acetyl-Leu-Leu-Meth-CHO, N-Acetyl-Leu-Leu-Met-CHO] (Ac-Leu-Leu-Met-aldehyde; configuration not given here)
- EC50 [1]: 4 µM

Compound: CC(=O)CCCCn1c(=O)c2c(ncn2C)n(C)c1=O [PTX, pentoxyfilline]
- lowest concentration enhancing new bone formation (as low as) (neonatal mouse calvaria): 0.1 μm
- new bone formation in the in vitro calvarial assay (neonatal mouse calvaria): active
- increase of new bone area (neonatal mouse calvaria; 100 μm): ~3 times that of control
- enhancement of new bone area over control (neonatal mouse calvaria; concentration of 10 μm): over 100%

Compound: COc1cc(CNC(=O)CCCC/C=C/C(C)C)ccc1O [Capsaicin]
- activity in the ABA assay compared with proteasome inhibitors (mouse BMP2 promoter): less active
- response in the high throughput luciferase screen (mouse BMP2 promoter): do not give promising responses
- EC50 [1]: 30 µM
- new bone formation in the in vitro calvarial assay (neonatal mouse calvaria): appeared negative

Compound: CC(C)C[C@H](NC(=O)[C@H](CC(C)C)NC(=O)[C@H](CC(C)C)NC(=O)OCc1ccccc1)B(O)O [MG262]
- EC50 (mouse BMP2 promoter): 0.1 µM
- EC50 [1, 3]: 0.07 µM
- EC50 (neonatal mouse calvaria; calvarial assay in vitro): 0.1 µM

Compound: CCCC[C@@H](C=O)NC(=O)[C@H](CC(C)C)NC(=O)[C@H](CC(C)C)NC(C)=O [ALLN, N-Acetyl-Leu-Leu-Nle-CHO] (Ac-Leu-Leu-[Nle]-aldehyde)
- EC50 (mouse BMP2 promoter): 10 µM
- EC50 [1, 3]: 1.5 µM
- effect on hair follicles (hair follicles; dose not given): had no effect on hair follicles
- effects on proteasomal activity (proteasomal activity): no effects on proteasomal activity

Compound: CN1C(=O)C23CC4=CC=C[C@H](O)C4N2C(=O)C1(CO)SS3 (some centres unmarked) [Gliotoxin]
- response in the high throughput luciferase screen (mouse BMP2 promoter): do not give promising responses
- new bone formation in the in vitro calvarial assay (neonatal mouse calvaria): did demonstrate the ability to stimulate bone growth
- EC50 (neonatal mouse calvaria): 10 µM

Compound: CC[C@H](CO)Nc1nc(NCc2ccccc2)c2ncn(C(C)C)c2n1 [roscovitine]
- response in the high throughput luciferase screen (mouse BMP2 promoter): do not give promising responses
- new bone formation in the in vitro calvarial assay (neonatal mouse calvaria): appeared negative
- effect on follicle growth [2]: did not significantly affect follicle growth

Compound: c1ccc(N=NC2=NNc3ccccc3S2)cc1 [59-0008, 3-phenylazo-1H-4,1,2-benzothiadiazine]
- concentration of maximal reactivity (mouse BMP2 promoter): 3 to 10 µM

Compound: O=C(NC1=CC(=O)c2ccccc2C1=O)c1ccccc1 [PPM-18, 2-benzoylamino-1,4-naphthoguinone]
- effect on hair follicles (hair follicles; dose not given): had no effect on hair follicles
- effects on proteasomal activity (proteasomal activity): no effects on proteasomal activity

Compound: CC[C@H](C)C(=O)O[C@H]1C[C@@H](C)C=C2C=C[C@H](C)[C@H](CC[C@@H]3C[C@@H](O)CC(=O)O3)[C@H]21 [lovastatin]
- effect on hair follicles (hair follicles; injected locally into the subcutaneous tissue in sufficient concentrations to cause local periosteal bone formation): had no effect on hair follicles
- effects on proteasomal activity (proteasomal activity): no effects on proteasomal activity

Compound: COc1cc(/C=C/C(=O)CC(=O)/C=C/c2ccc(O)c(OC)c2)ccc1O [curcumin]
- activity in the ABA assay compared with proteasome inhibitors (mouse BMP2 promoter): less active
